{"source": "PubChem BioAssay AID328", "about": "(DTP/NCI, 2004)", "test_system": "BDF1 mice, P388 leukemia ip, median survival T/C", "experiment": "NCI In Vivo Anticancer Drug Screen. Data for tumor model P388 Leukemia (intraperitoneal) in B6D2F1 (BDF1) mice", "conditions": "endpoint: median survival time, higher = longer survival", "summary_of_the_method": "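Each value expresses how treatment altered survival: treated-mouse outcome over vehicle-mouse outcome, both groups bearing the transplanted tumour.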", "key": {"[1]": {"conditions": "dose: 100.0 mg/kg/injection, schedule: Q04DX003 (ip), vehicle: Klucel (hydroxypropylcellulose) (HPC)"}, "[2]": {"conditions": "dose: 200.0 mg/kg/injection, schedule: Q04DX003 (ip), vehicle: Klucel (hydroxypropylcellulose) (HPC)"}, "[3]": {"conditions": "dose: 50.0 mg/kg/injection, schedule: Q01DX009 (ip), vehicle: saline"}, "[4]": {"conditions": "dose: 100.0 mg/kg/injection, schedule: Q01DX009 (ip), vehicle: saline"}, "[5]": {"conditions": "dose: 200.0 mg/kg/injection, schedule: Q01DX009 (ip), vehicle: saline"}, "[6]": {"conditions": "dose: 25.0 mg/kg/injection, schedule: Q04DX003 (ip), vehicle: Klucel (hydroxypropylcellulose) (HPC)"}, "[7]": {"conditions": "dose: 100.0 mg/kg/injection, schedule: Q04DX003 (ip), vehicle: saline with Tween-80"}, "[8]": {"conditions": "dose: 200.0 mg/kg/injection, schedule: Q04DX003 (ip), vehicle: saline with Tween-80"}, "[9]": {"conditions": "dose: 400.0 mg/kg/injection, schedule: Q04DX003 (ip), vehicle: saline with Tween-80"}}, "note": "Several values for one entry are separate records, joined by “and”; a condition that tells them apart may be missing. Identical values can stand only once. Toxic doses and inconclusive results are not listed."}
{"smiles": "CSC1CCCC(=O)C1", "note": "(stereo not drawn)", "values": [{"measurement": "T/C", "setting": "dose: 12.5 mg/kg/injection, schedule: Q01DX009 (ip), vehicle: Klucel (hydroxypropylcellulose) (HPC)", "result": "100 % of control"}, {"measurement": "T/C", "setting": "dose: 25.0 mg/kg/injection, schedule: Q01DX009 (ip), vehicle: Klucel (hydroxypropylcellulose) (HPC)", "result": "105 % of control"}, {"measurement": "T/C", "setting": "[1]", "result": "100 % of control"}, {"measurement": "T/C", "setting": "[2]", "result": "95 % of control"}, {"measurement": "T/C", "setting": "dose: 400.0 mg/kg/injection, schedule: Q04DX003 (ip), vehicle: Klucel (hydroxypropylcellulose) (HPC)", "result": "90 % of control"}]}
{"smiles": "CCOC(=O)C(C)Oc1ccc(Cl)cc1", "note": "(stereo not drawn)", "values": [{"measurement": "T/C", "setting": "dose: 25.0 mg/kg/injection, schedule: Q04DX003 (ip), vehicle: water", "result": "106 % of control"}, {"measurement": "T/C", "setting": "dose: 50.0 mg/kg/injection, schedule: Q04DX003 (ip), vehicle: water", "result": "101 % of control"}, {"measurement": "T/C", "setting": "dose: 100.0 mg/kg/injection, schedule: Q04DX003 (ip), vehicle: water", "result": "113 % of control"}, {"measurement": "T/C", "setting": "dose: 200.0 mg/kg/injection, schedule: Q04DX003 (ip), vehicle: water", "result": "112 % of control"}, {"measurement": "T/C", "setting": "dose: 400.0 mg/kg/injection, schedule: Q04DX003 (ip), vehicle: water", "result": "106 % of control"}]}
{"smiles": "Cc1ccc(S(=O)(=O)NCCCCCC(=O)OCc2ccccc2)cc1", "values": [{"measurement": "T/C", "setting": "[3]", "result": "99 % of control"}, {"measurement": "T/C", "setting": "[4]", "result": "108 % of control"}, {"measurement": "T/C", "setting": "[5]", "result": "100 % of control"}]}
{"smiles": "CC(O)C(N)C(=O)NCCc1nc(-c2nc(C(=O)NCCCBr)cs2)cs1", "note": "(stereo not drawn)", "values": [{"measurement": "T/C", "setting": "[3]", "result": "106 % of control"}, {"measurement": "T/C", "setting": "[4]", "result": "94 % of control"}, {"measurement": "T/C", "setting": "[5]", "result": "103 % of control"}]}
{"smiles": "COc1cc(C=Nc2ccc(-c3nc(C)sc3C)cc2)ccc1N(CCCl)CCCl", "values": [{"measurement": "T/C", "setting": "dose: 16.5 mg/kg/injection, schedule: Q04DX003 (ip), vehicle: Klucel (hydroxypropylcellulose) (HPC)", "result": "300 % of control"}, {"measurement": "T/C", "setting": "[6]", "result": "231 % of control and 300 % of control"}, {"measurement": "T/C", "setting": "dose: 37.5 mg/kg/injection, schedule: Q04DX003 (ip), vehicle: Klucel (hydroxypropylcellulose) (HPC)", "result": "300 % of control"}]}
{"smiles": "CC(C)=NNS(=O)(=O)c1ccc(C)cc1", "values": [{"measurement": "T/C", "setting": "[6]", "result": "106 % of control"}, {"measurement": "T/C", "setting": "dose: 50.0 mg/kg/injection, schedule: Q04DX003 (ip), vehicle: Klucel (hydroxypropylcellulose) (HPC)", "result": "106 % of control"}, {"measurement": "T/C", "setting": "[1]", "result": "111 % of control"}, {"measurement": "T/C", "setting": "[2]", "result": "111 % of control"}]}
{"smiles": "C1CCC2[N-]CC3CCCCC3[N-]CC3CCCCC3[N-]CC3CCCCC3[N-]CC2C1.[Ni+2].[O-][Cl+3]([O-])([O-])O", "note": "(stereo not drawn)", "values": [{"measurement": "T/C", "setting": "dose: 0.75 mg/kg/injection, schedule: Q01DX009 (ip), vehicle: saline", "result": "102 % of control"}, {"measurement": "T/C", "setting": "dose: 1.5 mg/kg/injection, schedule: Q01DX009 (ip), vehicle: saline", "result": "110 % of control"}, {"measurement": "T/C", "setting": "dose: 3.0 mg/kg/injection, schedule: Q01DX009 (ip), vehicle: saline", "result": "102 % of control"}, {"measurement": "T/C", "setting": "dose: 6.0 mg/kg/injection, schedule: Q01DX009 (ip), vehicle: saline", "result": "105 % of control"}]}
{"smiles": "COC(=O)C1C2(C)CCc3cc(OC)ccc3C2=CC(=O)C1(C)C(=O)OC", "note": "(stereo not drawn)", "values": [{"measurement": "T/C", "setting": "dose: 50.0 mg/kg/injection, schedule: Q04DX003 (sc), vehicle: steriod suspending solution", "result": "100 % of control"}, {"measurement": "T/C", "setting": "dose: 100.0 mg/kg/injection, schedule: Q04DX003 (sc), vehicle: steriod suspending solution", "result": "90 % of control"}]}
{"smiles": "C=CC[NH-].C=CC[NH-].CC(=O)CC(C)=O.CC(=O)CC(C)=O.[Ni+2]", "values": [{"measurement": "T/C", "setting": "dose: 6.25 mg/kg/injection, schedule: Q04DX002 (ip), vehicle: saline", "result": "107 % of control"}, {"measurement": "T/C", "setting": "dose: 12.5 mg/kg/injection, schedule: Q04DX002 (ip), vehicle: saline", "result": "100 % of control"}, {"measurement": "T/C", "setting": "dose: 25.0 mg/kg/injection, schedule: Q04DX002 (ip), vehicle: saline", "result": "117 % of control"}]}
{"smiles": "CC(=O)Oc1cc(OCCCc2ccc(F)cc2)cc2c1-c1ccccc1CC2", "values": [{"measurement": "T/C", "setting": "[7]", "result": "99 % of control"}, {"measurement": "T/C", "setting": "[8]", "result": "89 % of control"}, {"measurement": "T/C", "setting": "[9]", "result": "97 % of control"}]}
{"smiles": "COc1cc([N+](=O)[O-])c(Cl)cc1NS(=O)(=O)c1ccccc1", "values": [{"measurement": "T/C", "setting": "dose: 67.0 mg/kg/injection, schedule: Q01DX009 (ip), vehicle: saline with Tween-80", "result": "100 % of control and 108 % of control"}, {"measurement": "T/C", "setting": "dose: 100.0 mg/kg/injection, schedule: Q01DX009 (ip), vehicle: saline with Tween-80", "result": "100 % of control and 111 % of control"}, {"measurement": "T/C", "setting": "[7]", "result": "103 % of control"}, {"measurement": "T/C", "setting": "dose: 150.0 mg/kg/injection, schedule: Q01DX009 (ip), vehicle: saline with Tween-80", "result": "100 % of control and 111 % of control"}, {"measurement": "T/C", "setting": "dose: 200.0 mg/kg/injection, schedule: Q01DX009 (ip), vehicle: saline with Tween-80", "result": "120 % of control"}, {"measurement": "T/C", "setting": "[8]", "result": "92 % of control"}, {"measurement": "T/C", "setting": "dose: 400.0 mg/kg/injection, schedule: Q01DX009 (ip), vehicle: saline with Tween-80", "result": "105 % of control"}, {"measurement": "T/C", "setting": "[9]", "result": "96 % of control"}]}
